From US12097173B2, “Volatile organic compound formulations having antimicrobial activity” (priority 2019, dated 2024)

Assays:
Format in all cases: cell-based
Trichoderma viridae = assay: plate bioassay of volatile test mixtures, growth inhibition; details: 30 hr at 22° C.; esters with 1:1 v/v propanoic acid and isobutryic acid (acids to ester 7:2 v/v), 9 ul; acids 7 ul
Experimental: (§1) FIG. 1 illustrates a plate bioassay to determine the bioactivity of various esters when combined with a 1:1 mix of the two organic acids as per Table 2. The test organisms were as follows—Cercospora (dark-lower left bottom) then clockwise—Phytophthora, Verticillium, Sclerotinia, Pythium. Fusarium, Trichoderma, Rhizoctonia, and Aspergillus. The streaks were Saccharomyces (far right bottom) then Candida, E coli and Bacillus (left bottom). A=control plate, and B=plate with System 1 after incubation for 30 hr.
(§2) FIG. 9 depicts the biological activities of various test mixtures against a panel of test microbes. A small plug of each organism was placed in the periphery of the PDA plate. In the center well was placed the test solution in the plastic cup holder. A control plate (A) was also set up. After 30 hr the growth of the test organisms was compared to that of the control and the % inhibition was calculated. The (B) plate contained the test mixture. Measurements were made 30 hr after plate set up.
(§3) FIG. 1. Indicates how the assays were done to yield the data sets in Table 1. The various esters were combined with a 1:1 mixture of propanoic acid and isobutryic acid and these were added 7:2 V/V with the ester to be tested.
(§4) Shown in Table 1, are the inhibition and killing effects of propanoic acid, and isobutryic acid together and alone and with various esters. The tests were conducted over the course of 30 hr at 22° C. Measurements were made on appropriate controls and thus the percentage of inhibition calculations could be made on treatments vs the growth on a control organism (non-treated). The bacteria and yeast like organisms were evaluated on the basis of relative growth rates after 30 hr. Those highlighted areas on the table show those compounds (esters) having the most compatibility with propanoic and isobutryic acid 1:1 v/v mixtures with the appropriate esters at a 7:2 ratio—Systems 1 and 2 above. It is from this test that Systems 1 and 2 were discovered. The acids were added at […] individually and combination of the esters with the acids were added at the […] in the plate assay.
(§5) Tests were conducted as similarly described for Systems 1 and 2 above (FIG. 9) to ascertain the biological activities of various test mixtures against a panel of test microbes. A small plug of each organism was placed in the periphery of the PDA plate. In the center well was placed the test solution in the plastic cup holder. A control plate (A) was also set up. After 30 hr the growth of the test organisms was compared to that of the control and the % inhibition was calculated. The (B) plate contained the test mixture. Measurements were made 30 hr after plate set up.

Verticillium dahliae = assay: as above; details: 30 hr at 22° C.; esters with 1:1 v/v propanoic acid and isobutryic acid (acids to ester 7:2 v/v), 9 ul; acids 7 ul
Experimental: as §1, §2, §3, §4, §5

Pythium ultimum = assay: as above; details: 30 hr at 22° C.; esters with 1:1 v/v propanoic acid and isobutryic acid (acids to ester 7:2 v/v), 9 ul; acids 7 ul
Experimental: as §1, §2, §3, §4, §5

Rhizoctonia solani = assay: as above; details: 30 hr at 22° C.; esters with 1:1 v/v propanoic acid and isobutryic acid (acids to ester 7:2 v/v), 9 ul; acids 7 ul
Experimental: as §1, §2, §3, §4, §5

Cercospora beticola = assay: as above; details: 30 hr at 22° C.; esters with 1:1 v/v propanoic acid and isobutryic acid (acids to ester 7:2 v/v), 9 ul; acids 7 ul
Experimental: as §1, §2, §3, §4, §5

Phytophthora cinnamomi = assay: as above; details: 30 hr at 22° C.; esters with 1:1 v/v propanoic acid and isobutryic acid (acids to ester 7:2 v/v), 9 ul; acids 7 ul
Experimental: as §1, §2, §3, §4, §5

Aspergillus fumigatus = assay: as above; details: 30 hr at 22° C.; esters with 1:1 v/v propanoic acid and isobutryic acid (acids to ester 7:2 v/v), 9 ul; acids 7 ul
Experimental: as §1, §3, §4

Fusarium subglutinans = assay: as above; details: 30 hr at 22° C.; esters with 1:1 v/v propanoic acid and isobutryic acid (acids to ester 7:2 v/v), 9 ul; acids 7 ul
Experimental: as §1, §3, §4

Sclerotinia sclerotiorum = assay: as above; details: 30 hr at 22° C.; esters with 1:1 v/v propanoic acid and isobutryic acid (acids to ester 7:2 v/v), 9 ul; acids 7 ul
Experimental: as §1, §2, §3
The tests were conducted over the course of 30 hr at 22° C. Measurements were made on appropriate controls and thus the percentage of inhibition calculations could be made on treatments vs the growth on a control organism (non-treated). The bacteria and yeast like organisms were evaluated on the basis of relative growth rates after 30 hr. […] The acids were added at […] individually and combination of the esters with the acids were added at the […] in the plate assay.
as §5

Candida albicans = assay: plate bioassay of volatile test mixtures, relative growth of streak; details: relative growth after 30 hr at 22° C.; esters with 1:1 v/v propanoic acid and isobutryic acid (7:2 v/v), 9 ul; acids 7 ul
Experimental: as §1, §2, §3, §4, §5

Bacillus subtilus = assay: as above; details: relative growth after 30 hr at 22° C.; esters with 1:1 v/v propanoic acid and isobutryic acid (7:2 v/v), 9 ul; acids 7 ul
Experimental: as §1, §2, §3, §4, §5

Escherichia coli = assay: as above; details: relative growth after 30 hr at 22° C.; esters with 1:1 v/v propanoic acid and isobutryic acid (7:2 v/v), 9 ul; acids 7 ul
Experimental: as §1, §2, §3, §4, §5

Saccharomyces cerevicae = assay: as above; details: relative growth after 30 hr at 22° C.; esters with 1:1 v/v propanoic acid and isobutryic acid (7:2 v/v), 9 ul; acids 7 ul
Experimental: as §1, §2, §3, §4, §5

| SMILES | inhibition of Trichoderma viridae (Trichoderma viridae) [%] | inhibition of Verticillium dahliae (Verticillium dahliae) [%] | inhibition of Pythium ultimum (Pythium ultimum) [%] | inhibition of Rhizoctonia solani (Rhizoctonia solani) [%] | inhibition of Cercospora beticola (Cercospora beticola) [%] | inhibition of Phytophthora cinnamomi (Phytophthora cinnamomi) [%] | inhibition of Aspergillus fumigatus (Aspergillus fumigatus) [%] | inhibition of Fusarium subglutinans (Fusarium subglutinans) [%] | inhibition of Sclerotinia sclerotiorum (Sclerotinia sclerotiorum) [%] | growth of Candida albicans (Candida albicans) | growth of Bacillus subtilus (Bacillus subtilus) | growth of Escherichia coli (Escherichia coli) | growth of Saccharomyces cerevicae (Saccharomyces cerevicae) |
| --- | --- | --- | --- | --- | --- | --- | --- | --- | --- | --- | --- | --- | --- |
| CCCCOC(=O)C(C)C [Butyl Isobutyrate] | 40 | 60 | 100 | 97 | 95 | 0 | 0 | 0 | 0 | Growth Observed | No Growth | No Growth | Growth Observed |
| CCOC(=O)C(C)C [Ethyl Isobutyrate] | 67 | 80 | 100 | 100 | 95 | 100 | 80 | 67 | 90 | Growth Observed | No Growth | No Growth | Growth Observed |
| CCCC(=O)OCCC(C)C [Isoamyl Butyrate] | 90 | 100 | 100 | 100 | 100 | 100 | 90 | 100 | 95 | No Growth | No Growth | No Growth | Growth Observed |
| CC(C)CCOC(=O)C(C)C [Isoamyl Isobutyrate] | 67 | 96 | 100 | 100 | 95 | 97 | 80 | 67 | 80 | Growth Observed | No Growth | No Growth | Growth Observed |
| CC(=O)OCC(C)C [Isobutyl Acetate] | 20 | 60 | 100 | 57 | 95 | 67 | 0 | 67 | 20 | Growth Observed | Inhibited | Inhibited | Growth Observed |
| CCCC(=O)OCC(C)C [Isobutyl Butyrate] | 47 | 96 | 100 | 100 | 100 | 33 | 0 | 33 | 70 | Growth Observed | No Growth | No Growth | Growth Observed |
| CC(C)COC(=O)C(C)C [Isobutyl Isobutyrate] | 47 | 92 | 100 | 86 | 95 | 0 | 80 | 50 | 75 | Growth Observed | Inhibited | Inhibited | Growth Observed |
| CC(C)COC(=O)CC(C)C [Isobutyl Isovalerate] | 20 | 96 | 100 | 94 | 95 | 100 | 0 | 67 | 0 | Growth Observed | Inhibited | Inhibited | Growth Observed |
| CCC(=O)OCC(C)C [Isobutyl Propionate] | 40 | 88 | 100 | 100 | 100 | 33 | 80 | 67 | 80 | Growth Observed | No Growth | No Growth | Growth Observed |
